In ChEMBL document CHEMBL1201862, “PubChem BioAssay data set” (2004):
Structures can show the parent of a compound that is named as a salt. Activity calls are given as the source filed them.

Tests used:
[1] = Concentration-dependent survival of SW480 colon cancer line, luminescence detection with CellTiter-Glo, half-maximal inhibitory concentration (AID 1117338); assay type: functional
[2] = HCT116 cell viability decrease, GSK3B pretreatment – CellTiter-Glo, IC50, dose response (AID 1117339); assay type: functional; conditions: HCT-116
[3] = HeLa 4N DNA content increase, dose response, cell-based, IC50 (AID 1117351); assay type: functional
[4] = cytotoxicity toward Colo320 cells – cell-based, CellTiter-Glo luminescence, IC50, dose response (AID 1117334); assay type: functional; conditions: COLO 320
[5] = SNU-C1 cell viability reduction, dose response, CellTiter-Glo luminescence (AID 1117323); assay type: functional, cell-based
[6] = cytotoxicity toward HCT116 cells – cell-based, CellTiter-Glo luminescence, IC50, dose response (AID 1117332); assay type: functional; conditions: HCT-116
[7] = CellTiter-Glo luminescent dose response of DLD-1 viability loss (AID 1117352); assay type: functional
[8] = RKO cell viability reduction, dose response, CellTiter-Glo luminescence (AID 1117322); assay type: functional
[9] = cytotoxicity toward HT-29 cells – cell-based, CellTiter-Glo luminescence, IC50, dose response (AID 1117330); assay type: functional
[10] = HeLa 2N DNA content increase, dose response, cell-based, IC50 (AID 1117349); assay type: functional
[11] = target: T1, Long-chain-fatty-acid--AMP ligase FadD28 (Mycobacterium tuberculosis, UniProt P9WQ59); experiment: Fluorescence polarization aasay to screen for inhibitors that compete for the binding of FadD28 to a bisubstrate Measured in Biochemical System Using Plate Reader - 2147-01_Inhibitor_Dose_CherryPick_Activity.; assay type: functional, Mycobacterium tuberculosis H37Rv
T1 sequence (P9WQ59 whole entry): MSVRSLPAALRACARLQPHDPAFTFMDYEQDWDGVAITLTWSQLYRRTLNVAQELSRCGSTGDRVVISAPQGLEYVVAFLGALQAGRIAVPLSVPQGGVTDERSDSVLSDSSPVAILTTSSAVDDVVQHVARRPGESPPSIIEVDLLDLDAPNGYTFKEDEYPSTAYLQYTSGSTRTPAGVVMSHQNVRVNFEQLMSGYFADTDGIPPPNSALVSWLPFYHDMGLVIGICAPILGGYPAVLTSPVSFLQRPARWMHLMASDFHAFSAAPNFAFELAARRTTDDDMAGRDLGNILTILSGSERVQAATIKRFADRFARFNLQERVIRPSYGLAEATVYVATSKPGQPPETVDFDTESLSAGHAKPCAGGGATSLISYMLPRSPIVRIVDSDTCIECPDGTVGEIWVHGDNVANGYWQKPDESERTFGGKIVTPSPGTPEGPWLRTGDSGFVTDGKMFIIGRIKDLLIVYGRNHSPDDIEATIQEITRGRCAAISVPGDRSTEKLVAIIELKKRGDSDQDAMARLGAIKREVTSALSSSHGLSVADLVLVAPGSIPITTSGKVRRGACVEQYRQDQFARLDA

[12] = target: Ubiquitin carboxyl-terminal hydrolase BAP1 (Homo sapiens, UniProt Q92560); experiment: BAP1 deubiquitinase inhibitors, dose response, biochemical (AID 714); assay type: functional
[13] = Late-stage results from the probe development effort to identify antagonists of arginine vasopressin receptor 1a (AVPR1a): fluorescence-based cell-based dose response OXTR inhibition counterscreen assay.; assay type: functional
Vasopressin V1b receptor = Vasopressin V1b receptor (Homo sapiens, UniProt P47901); experiment: Late-stage results from the probe development effort to identify antagonists of arginine vasopressin receptor 1a (AVPR1a): fluorescence-based cell-based dose response AVPR1b inhibition counterscreen assay.; assay type: functional
Vasopressin V2 receptor = Vasopressin V2 receptor (Homo sapiens, UniProt P30518); experiment: Late-stage results from the probe development effort to identify antagonists of arginine vasopressin receptor 1a (AVPR1a): fluorescence-based cell-based dose response AVPR2 inhibition counterscreen assay.; assay type: functional
[14] = Late-stage results from the probe development effort to identify antagonists of arginine vasopressin receptor 1a (AVPR1a): fluorescence-based cell-based dose response AVPR1a inhibition assay.; assay type: functional
Fibrinogen beta chain [15] = target: T2, Fibrinogen beta chain (Homo sapiens, UniProt P02675); experiment: Fluorescence polarization-based biochemical high throughput dose response assay to identify inhibitors that disrupt the binding of a cyclic peptide (Tn6) to the fibrin proteolytic product D-Dimer and fragment E complex [DD(E )].
Fibrinogen beta chain [16] = target: T2, Fibrinogen beta chain; experiment: Fluorescence polarization-based biochemical high throughput dose response assay to identify inhibitors that disrupt the binding of a cyclic peptide (Tn7) to the fibrin proteolytic product D-Dimer and fragment E complex [DD(E )].
[17] = HepG2 cell cytotoxicity, dose response, cytotoxicity control, plate reader, dry powder, set 6 (AID 743311); assay type: functional, cell-based
cells = assay type: functional, cell-based; conditions: INS-1E
[18] = Dose-response inhibition of insulin secretion in a rat insulinoma line at 5 mM glucose (AID 1117331); assay type: functional, cell-based; conditions: INS-1E
[19] = target: NAD-dependent protein deacylase sirtuin-5, mitochondrial (Homo sapiens, UniProt Q9NXA8); experiment: SIRT5 desuccinylase inhibitors, dose response, biochemical, fluorescence imaging, cherry-pick, set 5 (AID 720591);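 also: desuccinylation of succinyl peptide AMC substrate read as fluorescence after trypsin release; potency of inhibitors that lower fluorescence and may act on trypsin instead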
NAD-dependent protein deacylase sirtuin-5, mitochondrial, sequence (Q9NXA8 whole entry): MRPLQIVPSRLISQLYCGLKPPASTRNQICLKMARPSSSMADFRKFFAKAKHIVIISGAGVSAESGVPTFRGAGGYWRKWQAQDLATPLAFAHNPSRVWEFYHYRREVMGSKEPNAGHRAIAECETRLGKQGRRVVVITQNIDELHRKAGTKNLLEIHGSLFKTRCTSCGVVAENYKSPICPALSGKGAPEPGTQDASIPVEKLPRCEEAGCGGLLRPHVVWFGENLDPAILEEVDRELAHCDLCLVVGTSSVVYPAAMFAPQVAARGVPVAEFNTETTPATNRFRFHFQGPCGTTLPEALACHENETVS

T2 sequence (P02675 whole entry, the tested form may be a part): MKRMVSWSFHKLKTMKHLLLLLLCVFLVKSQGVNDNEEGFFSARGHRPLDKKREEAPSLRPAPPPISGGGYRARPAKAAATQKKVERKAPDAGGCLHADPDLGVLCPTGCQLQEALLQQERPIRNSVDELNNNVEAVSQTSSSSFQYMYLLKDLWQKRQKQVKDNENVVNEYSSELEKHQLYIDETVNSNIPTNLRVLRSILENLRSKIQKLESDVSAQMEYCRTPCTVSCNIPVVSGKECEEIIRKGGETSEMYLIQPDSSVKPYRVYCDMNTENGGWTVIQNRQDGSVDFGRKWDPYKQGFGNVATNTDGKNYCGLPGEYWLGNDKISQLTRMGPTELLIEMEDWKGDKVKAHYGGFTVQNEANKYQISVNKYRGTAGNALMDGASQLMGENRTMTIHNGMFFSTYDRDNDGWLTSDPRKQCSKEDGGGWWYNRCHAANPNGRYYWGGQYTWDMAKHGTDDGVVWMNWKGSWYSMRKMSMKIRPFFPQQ
Vasopressin V2 receptor, sequence (P30518 whole entry): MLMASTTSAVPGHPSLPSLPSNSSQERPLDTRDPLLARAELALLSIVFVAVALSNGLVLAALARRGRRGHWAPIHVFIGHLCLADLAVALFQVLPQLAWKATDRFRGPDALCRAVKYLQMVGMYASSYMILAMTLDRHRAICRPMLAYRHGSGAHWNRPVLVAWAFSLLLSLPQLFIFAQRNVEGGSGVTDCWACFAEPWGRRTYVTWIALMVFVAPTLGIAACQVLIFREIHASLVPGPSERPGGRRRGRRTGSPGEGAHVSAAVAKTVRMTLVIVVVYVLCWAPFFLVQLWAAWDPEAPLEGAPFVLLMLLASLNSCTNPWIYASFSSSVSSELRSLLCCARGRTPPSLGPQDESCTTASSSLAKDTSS
Vasopressin V1b receptor, sequence (P47901 whole entry): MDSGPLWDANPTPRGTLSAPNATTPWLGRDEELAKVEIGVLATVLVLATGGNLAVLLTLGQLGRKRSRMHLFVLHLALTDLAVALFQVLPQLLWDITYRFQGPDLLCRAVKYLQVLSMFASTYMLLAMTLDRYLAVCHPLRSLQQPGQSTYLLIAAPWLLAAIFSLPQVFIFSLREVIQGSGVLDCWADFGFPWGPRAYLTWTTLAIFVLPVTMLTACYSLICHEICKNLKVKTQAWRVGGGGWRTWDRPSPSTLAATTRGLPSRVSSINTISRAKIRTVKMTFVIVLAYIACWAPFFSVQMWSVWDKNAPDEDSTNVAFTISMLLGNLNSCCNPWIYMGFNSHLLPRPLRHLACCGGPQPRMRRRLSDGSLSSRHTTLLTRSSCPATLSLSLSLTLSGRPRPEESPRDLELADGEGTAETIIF
Ubiquitin carboxyl-terminal hydrolase BAP1, sequence (Q92560 whole entry): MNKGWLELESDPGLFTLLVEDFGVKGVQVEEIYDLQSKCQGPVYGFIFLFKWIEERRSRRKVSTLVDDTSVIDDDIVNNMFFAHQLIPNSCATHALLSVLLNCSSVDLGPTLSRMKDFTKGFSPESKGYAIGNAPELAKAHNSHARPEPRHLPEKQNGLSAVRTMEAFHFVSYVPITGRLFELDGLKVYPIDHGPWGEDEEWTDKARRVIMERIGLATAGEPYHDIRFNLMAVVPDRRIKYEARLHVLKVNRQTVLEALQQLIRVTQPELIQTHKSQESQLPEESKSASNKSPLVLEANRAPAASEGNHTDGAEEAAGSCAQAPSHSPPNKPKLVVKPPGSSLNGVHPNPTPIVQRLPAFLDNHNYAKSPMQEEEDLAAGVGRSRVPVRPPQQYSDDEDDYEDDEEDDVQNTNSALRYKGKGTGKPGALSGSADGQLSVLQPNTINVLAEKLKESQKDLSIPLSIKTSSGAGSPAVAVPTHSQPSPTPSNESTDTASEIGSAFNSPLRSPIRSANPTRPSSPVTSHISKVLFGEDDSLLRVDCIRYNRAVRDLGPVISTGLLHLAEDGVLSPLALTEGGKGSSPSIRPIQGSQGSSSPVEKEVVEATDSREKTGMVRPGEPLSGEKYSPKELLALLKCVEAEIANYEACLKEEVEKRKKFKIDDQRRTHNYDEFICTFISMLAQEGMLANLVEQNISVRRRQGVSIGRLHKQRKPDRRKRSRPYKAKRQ

Which IC50 [1] does the source give for `Cc1nc(N)nc(N)c1-c1ccc(Cl)c(Cl)c1` [METOPRINE] here?
Its IC50 is 0.512 µM (active).

And the IC50 [2]?
The IC50 was 0.0589 µM (active).

And the IC50 [3]?
Its IC50 is > 10 µM (inactive).

And the IC50 [4]?
The IC50 was 2.03 µM (active).

And the IC50 [5]?
Its IC50 is 2.16 µM (active).

And the IC50 [6]?
The IC50 was 0.413 µM (active).

And the IC50 [7]?
Its IC50 is 0.634 µM (active).

What about the IC50 [8] of the same compound?
The IC50 was 0.117 µM (active).

And the IC50 [9]?
The IC50 was 0.932 µM (active).

What about the IC50 [10] of the same compound?
The IC50 was > 10 µM (inactive).

For `CC1CCCN(S(=O)(=O)c2ccc(NC(=O)Cn3nnc(-c4ccccc4F)n3)cc2)C1` (configuration not stated), which AC50 [11] is on record?
Its AC50 is > 100 µM (inactive).

What about the IC50 [12] of the same compound?
The IC50 was 41.6 µM (not active).

With `Cc1ccc(N(CC2CC2)C(=O)N2CCN(c3ccccc3C)CC2)cc1` as the compound, how does the IC50 [13] read?
The IC50 was 0.082 µM (active).

And the IC50 (Vasopressin V1b receptor)?
Its IC50 is 17.6 µM (inactive).

And the IC50 (Vasopressin V2 receptor)?
The IC50 was 2.22 µM (active).

And the IC50 [14]?
The IC50 was 0.0069 µM (active).

For `Nc1c(SCCC(=O)O)ccc2c1C(=O)c1ccccc1C2=O`, which IC50 (Fibrinogen beta chain [15]) is on record?
The IC50 was 11.7 µM (inactive).

And the IC50 (Fibrinogen beta chain [16])?
The IC50 was > 83.3 µM (inactive).

For `O=S(=O)(c1ccc(OCCn2cnc3ccccc32)cc1)N1CCOCC1`, which AC50 [17] is on record?
The AC50 was > 52 µM (inactive).

Which IC50 (cells) does the source give for `NC[C@H]1CC[C@H](C(=O)Oc2ccc(CCC(=O)O)cc2)CC1` [CETRAXATE HYDROCHLORIDE] here?
Its IC50 is > 33.3 µM (inactive).

What about the IC50 [18] of the same compound?
Its IC50 is > 33.3 µM (inactive).

With `COc1ccc(CN2C(=O)C(CC(=O)NCCc3ccccn3)CC(C(=O)N3CCOCC3)=C2C)cc1` (configuration not stated) as the compound, how does the AC50 [19] read?
The AC50 was > 30 µM (inactive).
